# Laboratory results published in the NIST ThermoML archive (doi:10.1016/j.jct.2018.11.004).
# Numbers after ± are expanded uncertainties.
# Assay: molar heat capacity at saturation pressure
# Conditions: Crystal 1, Small (less than 1 g) adiabatic calorimetry
smiles,measurement,setting,value
CC(C)[C@@H]1CC[C@@H](C)C[C@H]1O [L-menthol],molar heat capacity,5.02 K,0.8545 ± 0.033 J/K/mol
same,molar heat capacity,5.31 K,1.027 ± 0.037 J/K/mol
same,molar heat capacity,5.63 K,1.231 ± 0.041 J/K/mol
same,molar heat capacity,5.95 K,1.445 ± 0.045 J/K/mol
same,molar heat capacity,6.26 K,1.675 ± 0.05 J/K/mol
same,molar heat capacity,6.62 K,1.937 ± 0.056 J/K/mol
same,molar heat capacity,7 K,2.276 ± 0.063 J/K/mol
same,molar heat capacity,7.37 K,2.577 ± 0.069 J/K/mol
same,molar heat capacity,7.74 K,2.937 ± 0.076 J/K/mol
same,molar heat capacity,8.14 K,3.382 ± 0.086 J/K/mol
same,molar heat capacity,8.58 K,3.847 ± 0.095 J/K/mol
same,molar heat capacity,9.03 K,4.373 ± 0.1 J/K/mol
same,molar heat capacity,9.49 K,4.87 ± 0.11 J/K/mol
same,molar heat capacity,9.99 K,5.512 ± 0.13 J/K/mol
same,molar heat capacity,10.51 K,6.205 ± 0.14 J/K/mol
same,molar heat capacity,11.04 K,6.889 ± 0.15 J/K/mol
same,molar heat capacity,11.61 K,7.681 ± 0.17 J/K/mol
same,molar heat capacity,12.2 K,8.523 ± 0.18 J/K/mol
same,molar heat capacity,12.83 K,9.473 ± 0.2 J/K/mol
same,molar heat capacity,13.48 K,10.42 ± 0.21 J/K/mol
same,molar heat capacity,14.15 K,11.42 ± 0.22 J/K/mol
same,molar heat capacity,14.89 K,12.53 ± 0.24 J/K/mol
same,molar heat capacity,15.66 K,13.66 ± 0.26 J/K/mol
same,molar heat capacity,16.43 K,14.93 ± 0.27 J/K/mol
same,molar heat capacity,17.26 K,16.13 ± 0.29 J/K/mol
same,molar heat capacity,18.12 K,17.43 ± 0.3 J/K/mol
same,molar heat capacity,19.04 K,18.89 ± 0.31 J/K/mol
same,molar heat capacity,20 K,20.23 ± 0.32 J/K/mol
same,molar heat capacity,21.02 K,21.71 ± 0.34 J/K/mol
same,molar heat capacity,22.08 K,23.27 ± 0.35 J/K/mol
same,molar heat capacity,23.2 K,24.92 ± 0.36 J/K/mol
same,molar heat capacity,24.41 K,26.58 ± 0.36 J/K/mol
same,molar heat capacity,25.66 K,28.24 ± 0.37 J/K/mol
same,molar heat capacity,26.93 K,29.92 ± 0.37 J/K/mol
same,molar heat capacity,28.27 K,31.55 ± 0.36 J/K/mol
same,molar heat capacity,29.67 K,33.28 ± 0.36 J/K/mol
same,molar heat capacity,31.12 K,34.98 ± 0.34 J/K/mol
same,molar heat capacity,32.66 K,36.66 ± 0.34 J/K/mol
same,molar heat capacity,34.28 K,38.41 ± 0.33 J/K/mol
same,molar heat capacity,36 K,40.06 ± 0.32 J/K/mol
same,molar heat capacity,37.89 K,42.03 ± 0.3 J/K/mol
same,molar heat capacity,39.9 K,43.93 ± 0.29 J/K/mol
same,molar heat capacity,42.02 K,45.96 ± 0.3 J/K/mol
same,molar heat capacity,44.24 K,48.03 ± 0.31 J/K/mol
same,molar heat capacity,46.54 K,50.11 ± 0.32 J/K/mol
same,molar heat capacity,48.92 K,52.21 ± 0.33 J/K/mol
same,molar heat capacity,51.35 K,54.32 ± 0.34 J/K/mol
same,molar heat capacity,53.83 K,56.47 ± 0.35 J/K/mol
same,molar heat capacity,56.32 K,58.63 ± 0.36 J/K/mol
same,molar heat capacity,58.78 K,60.81 ± 0.38 J/K/mol
same,molar heat capacity,61.29 K,62.85 ± 0.39 J/K/mol
same,molar heat capacity,64.03 K,65.18 ± 0.4 J/K/mol
same,molar heat capacity,66.85 K,67.74 ± 0.41 J/K/mol
same,molar heat capacity,69.53 K,70.14 ± 0.43 J/K/mol
same,molar heat capacity,72.08 K,72.41 ± 0.44 J/K/mol
same,molar heat capacity,74.6 K,74.48 ± 0.45 J/K/mol
same,molar heat capacity,77.11 K,76.77 ± 0.46 J/K/mol
same,molar heat capacity,79.66 K,78.77 ± 0.47 J/K/mol
same,molar heat capacity,79.78 K,79.07 ± 0.47 J/K/mol
same,molar heat capacity,81.5 K,80.47 ± 0.48 J/K/mol
same,molar heat capacity,82.26 K,80.88 ± 0.48 J/K/mol
same,molar heat capacity,83.22 K,81.89 ± 0.49 J/K/mol
same,molar heat capacity,84.79 K,83.06 ± 0.49 J/K/mol
same,molar heat capacity,84.94 K,83.28 ± 0.49 J/K/mol
same,molar heat capacity,86.67 K,84.77 ± 0.5 J/K/mol
same,molar heat capacity,87.34 K,85.27 ± 0.51 J/K/mol
same,molar heat capacity,88.39 K,86.22 ± 0.51 J/K/mol
same,molar heat capacity,89.9 K,87.37 ± 0.52 J/K/mol
same,molar heat capacity,90.12 K,87.73 ± 0.52 J/K/mol
same,molar heat capacity,91.85 K,89.21 ± 0.53 J/K/mol
same,molar heat capacity,92.42 K,89.76 ± 0.53 J/K/mol
same,molar heat capacity,93.59 K,90.65 ± 0.54 J/K/mol
same,molar heat capacity,94.94 K,91.69 ± 0.54 J/K/mol
same,molar heat capacity,95.32 K,92.09 ± 0.55 J/K/mol
same,molar heat capacity,97.06 K,93.51 ± 0.55 J/K/mol
same,molar heat capacity,97.47 K,93.81 ± 0.55 J/K/mol
same,molar heat capacity,98.8 K,95.01 ± 0.56 J/K/mol
same,molar heat capacity,100.02 K,95.95 ± 0.56 J/K/mol
same,molar heat capacity,100.55 K,96.44 ± 0.57 J/K/mol
same,molar heat capacity,102.3 K,97.81 ± 0.57 J/K/mol
same,molar heat capacity,102.58 K,98.22 ± 0.57 J/K/mol
same,molar heat capacity,104.04 K,99.24 ± 0.58 J/K/mol
same,molar heat capacity,105.18 K,100.4 ± 0.6 J/K/mol
same,molar heat capacity,105.8 K,100.7 ± 0.6 J/K/mol
same,molar heat capacity,107.55 K,102 ± 0.6 J/K/mol
same,molar heat capacity,107.78 K,102.4 ± 0.6 J/K/mol
same,molar heat capacity,109.31 K,103.5 ± 0.6 J/K/mol
same,molar heat capacity,111.06 K,104.9 ± 0.6 J/K/mol
same,molar heat capacity,112.82 K,106.2 ± 0.6 J/K/mol
same,molar heat capacity,114.58 K,107.7 ± 0.6 J/K/mol
same,molar heat capacity,116.34 K,109 ± 0.6 J/K/mol
same,molar heat capacity,118.11 K,110.4 ± 0.6 J/K/mol
same,molar heat capacity,119.87 K,111.7 ± 0.6 J/K/mol
same,molar heat capacity,121.64 K,113.1 ± 0.6 J/K/mol
same,molar heat capacity,123.41 K,114.4 ± 0.7 J/K/mol
same,molar heat capacity,125.18 K,115.8 ± 0.7 J/K/mol
same,molar heat capacity,126.95 K,117.2 ± 0.7 J/K/mol
same,molar heat capacity,128.73 K,118.4 ± 0.7 J/K/mol
same,molar heat capacity,130.5 K,119.8 ± 0.7 J/K/mol
same,molar heat capacity,132.28 K,121.1 ± 0.7 J/K/mol
same,molar heat capacity,134.07 K,122.4 ± 0.7 J/K/mol
same,molar heat capacity,135.85 K,123.7 ± 0.7 J/K/mol
same,molar heat capacity,137.63 K,125.1 ± 0.7 J/K/mol
same,molar heat capacity,139.41 K,126.4 ± 0.7 J/K/mol
same,molar heat capacity,141.2 K,127.7 ± 0.7 J/K/mol
same,molar heat capacity,142.99 K,128.9 ± 0.7 J/K/mol
same,molar heat capacity,144.77 K,130.2 ± 0.7 J/K/mol
same,molar heat capacity,146.56 K,131.5 ± 0.7 J/K/mol
same,molar heat capacity,148.36 K,132.8 ± 0.7 J/K/mol
same,molar heat capacity,150.15 K,134.1 ± 0.7 J/K/mol
same,molar heat capacity,151.94 K,135.3 ± 0.8 J/K/mol
same,molar heat capacity,153.73 K,136.6 ± 0.8 J/K/mol
same,molar heat capacity,155.53 K,137.9 ± 0.8 J/K/mol
same,molar heat capacity,157.32 K,139.1 ± 0.8 J/K/mol
same,molar heat capacity,159.12 K,140.4 ± 0.8 J/K/mol
same,molar heat capacity,160.91 K,141.7 ± 0.8 J/K/mol
same,molar heat capacity,162.72 K,143 ± 0.8 J/K/mol
same,molar heat capacity,164.52 K,144.3 ± 0.8 J/K/mol
same,molar heat capacity,166.32 K,145.5 ± 0.8 J/K/mol
same,molar heat capacity,168.12 K,146.8 ± 0.8 J/K/mol
same,molar heat capacity,169.92 K,148 ± 0.8 J/K/mol
same,molar heat capacity,171.73 K,149.2 ± 0.8 J/K/mol
same,molar heat capacity,173.53 K,150.5 ± 0.8 J/K/mol
same,molar heat capacity,175.33 K,151.8 ± 0.8 J/K/mol
same,molar heat capacity,177.14 K,153.1 ± 0.8 J/K/mol
same,molar heat capacity,178.95 K,154.4 ± 0.8 J/K/mol
same,molar heat capacity,180.76 K,155.6 ± 0.9 J/K/mol
same,molar heat capacity,182.56 K,156.9 ± 0.9 J/K/mol
same,molar heat capacity,184.37 K,158.2 ± 0.9 J/K/mol
same,molar heat capacity,186.18 K,159.4 ± 0.9 J/K/mol
same,molar heat capacity,188 K,160.7 ± 0.9 J/K/mol
same,molar heat capacity,189.81 K,162.1 ± 0.9 J/K/mol
same,molar heat capacity,191.62 K,163.3 ± 0.9 J/K/mol
same,molar heat capacity,193.43 K,164.6 ± 0.9 J/K/mol
same,molar heat capacity,195.25 K,165.9 ± 0.9 J/K/mol
same,molar heat capacity,197.06 K,167.2 ± 0.9 J/K/mol
same,molar heat capacity,198.87 K,168.5 ± 0.9 J/K/mol
same,molar heat capacity,200.69 K,169.8 ± 0.9 J/K/mol
same,molar heat capacity,202.5 K,171.1 ± 0.9 J/K/mol
same,molar heat capacity,204.32 K,172.4 ± 0.9 J/K/mol
same,molar heat capacity,206.14 K,173.7 ± 0.9 J/K/mol
same,molar heat capacity,207.95 K,175 ± 0.9 J/K/mol
same,molar heat capacity,209.77 K,176.4 ± 1 J/K/mol
same,molar heat capacity,211.6 K,177.6 ± 1 J/K/mol
